Source: patent US7767659B2, “Synthesis of naturally occurring ecteinascidins and related compounds” (Pharma Mar, S.A., priority 2002, dated 2010)

Experiments:
A-549 = experiment: cells; conditions: Homo sapiens, A549, 48 h; for GI50: read-out: GI50 A549; for CC50: read-out: LC50 A549; for IC (TGI): read-out: TGI A549
Outline: (§1)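 Colorimetric SRB read (490 nm) on triplicate wells after 48 h at 37 °C, 5% CO2. Dose range 10 to 10^−8 μg/ml; 5×10^3 cells/well pre-attached 18 h.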

HT-29 = experiment: cells; conditions: Homo sapiens, HT-29, 48 h; for GI50: read-out: GI50 HT29; for CC50: read-out: LC50 HT29; for IC (TGI): read-out: TGI HT29
Outline: as §1

LoVo = experiment: cells; conditions: Homo sapiens, LoVo, 48 h; for GI50: read-out: GI50 LOVO; for CC50: read-out: LC50 LOVO; for IC (TGI): read-out: TGI LOVO
Outline: as §1

DU-145 = experiment: Inhibition of cells growth by colorimetric assay (SRB); conditions: Homo sapiens, DU-145, 48 h; for GI50: read-out: GI50 DU145; for CC50: read-out: LC50 DU145; for IC (TGI): read-out: TGI DU145
Outline: as §1

HeLa-APL = experiment: as above; conditions: Homo sapiens, 48 h; for GI50: read-out: GI50 HELA-APL; for CC50: read-out: LC50 HELA-APL; for IC (TGI): read-out: TGI HELA-APL
Outline: as §1

HeLa = experiment: as above; conditions: Homo sapiens, HeLa, 48 h; for GI50: read-out: GI50 HELA; for CC50: read-out: LC50 HELA; for IC (TGI): read-out: TGI HELA
Outline: as §1

IGROV-1 = experiment: as above; conditions: Homo sapiens, IGROV-1, 48 h; for GI50: read-out: GI50 IGROV; for CC50: read-out: LC50 IGROV; for IC (TGI): read-out: TGI IGROV
Outline: as §1

IGROV-ET = experiment: as above; conditions: Homo sapiens, 48 h; for GI50: read-out: GI50 IGROV-ET; for CC50: read-out: LC50 IGROV-ET; for IC (TGI): read-out: TGI IGROV-ET
Outline: as §1

K-562 = experiment: as above; conditions: Homo sapiens, K562, 48 h; for GI50: read-out: GI50 K562; for CC50: read-out: LC50 K562; for IC (TGI): read-out: TGI K562
Outline: as §1

LNCaP = experiment: as above; conditions: Homo sapiens, LNCaP, 48 h; for GI50: read-out: GI50 LNCAP; for CC50: read-out: LC50 LNCAP; for IC (TGI): read-out: TGI LNCAP
Outline: as §1

LoVo-Dox = experiment: as above; conditions: Homo sapiens, 48 h; for GI50: read-out: GI50 LOVO-DOX; for CC50: read-out: LC50 LOVO-DOX; for IC (TGI): read-out: TGI LOVO-DOX
Outline: as §1

PANC-1 = experiment: as above; conditions: Homo sapiens, PANC-1, 48 h; for GI50: read-out: GI50 PANC-1; for CC50: read-out: LC50 PANC-1; for IC (TGI): read-out: TGI PANC-1
Outline: as §1

SK-BR-3 = experiment: as above; conditions: Homo sapiens, SK-BR-3, 48 h; for GI50: read-out: GI50 SK-BR3; for CC50: read-out: LC50 SK-BR3; for IC (TGI): read-out: TGI SK-BR3
Outline: as §1

SK-MEL-28 = experiment: as above; conditions: Homo sapiens, SK-MEL-28, 48 h; for GI50: read-out: GI50 MEL-28; for CC50: read-out: LC50 MEL-28; for IC (TGI): read-out: TGI MEL-28
Outline: as §1

Which results are given for `C=CCOc1c(C)c2c(c3c1CC1[C@H]4c5c(cc(C)c(OC)c5O)C[C@@H]([C@H](C#N)N1[C@H]3CN)N4C)OCO2` (stereo partly drawn) [compound 1]?
GI50 (A-549): 1.53 µM; CC50 (A-549): 19.2 µM; IC (TGI) (A-549): 6.07 µM; GI50 (HT-29): 1.11 µM; CC50 (HT-29): 19.2 µM; IC (TGI) (HT-29): 19.2 µM; GI50 (LoVo): 0.932 µM; CC50 (LoVo): 19.2 µM; IC (TGI) (LoVo): 4 µM; GI50 (DU-145): 0.567 µM; CC50 (DU-145): 1.92 µM; IC (TGI) (DU-145): 1.07 µM; GI50 (HeLa-APL): 0.717 µM; CC50 (HeLa-APL): 7.51 µM; IC (TGI) (HeLa-APL): 1.63 µM; GI50 (HeLa): 1.08 µM; CC50 (HeLa): 18.1 µM; IC (TGI) (HeLa): 2.84 µM; GI50 (IGROV-1): 0.901 µM; CC50 (IGROV-1): 19.2 µM; IC (TGI) (IGROV-1): 2.59 µM; GI50 (IGROV-ET): 0.97 µM; CC50 (IGROV-ET): 19.2 µM; IC (TGI) (IGROV-ET): 19.2 µM; GI50 (K-562): 0.361 µM; CC50 (K-562): 1.77 µM; IC (TGI) (K-562): 0.799 µM; GI50 (LNCaP): 0.434 µM; CC50 (LNCaP): 1.29 µM; IC (TGI) (LNCaP): 0.747 µM; GI50 (LoVo-Dox): 6.17 µM; CC50 (LoVo-Dox): 19.2 µM; IC (TGI) (LoVo-Dox): 19.2 µM; GI50 (PANC-1): 0.887 µM; CC50 (PANC-1): 19.2 µM; IC (TGI) (PANC-1): 4.36 µM; GI50 (SK-BR-3): 1.01 µM; CC50 (SK-BR-3): 19.2 µM; IC (TGI) (SK-BR-3): 3.96 µM; GI50 (SK-MEL-28): 0.561 µM; CC50 (SK-MEL-28): 6.07 µM; IC (TGI) (SK-MEL-28): 1.15 µM

`C=CCOc1c(C)c2c(c3c1CC1[C@H]4c5c(cc(C)c(OC)c5O)C[C@@H]([C@H](C#N)N1[C@H]3CO)N4C)OCO2` (stereo partly drawn) [compound 2] was tested. Which GI50 (A-549) did it give?
Its GI50 is 0.633 µM.

What about the CC50 (A-549) of the same compound?
The CC50 was 9.11 µM.

What about the IC (TGI) (A-549) of the same compound?
Its IC (TGI) is 1.39 µM.

And the GI50 (HT-29)?
Its GI50 is 1.06 µM.

And the CC50 (HT-29)?
The CC50 was 19.2 µM.

What about the IC (TGI) (HT-29) of the same compound?
The IC (TGI) was 14.2 µM.

What about the GI50 (LoVo) of the same compound?
The GI50 was 0.533 µM.

And the CC50 (LoVo)?
Its CC50 is 1.92 µM.

What about the IC (TGI) (LoVo) of the same compound?
The IC (TGI) was 1.07 µM.

And the GI50 (DU-145)?
Its GI50 is 0.897 µM.

And the CC50 (DU-145)?
The CC50 was 19.2 µM.

What about the IC (TGI) (DU-145) of the same compound?
Its IC (TGI) is 3.13 µM.

And the GI50 (HeLa-APL)?
Its GI50 is 0.479 µM.

And the CC50 (HeLa-APL)?
Its CC50 is 1.49 µM.

What about the IC (TGI) (HeLa-APL) of the same compound?
Its IC (TGI) is 0.844 µM.

And the GI50 (HeLa)?
The GI50 was 0.763 µM.

What about the CC50 (HeLa) of the same compound?
Its CC50 is 9.8 µM.

And the IC (TGI) (HeLa)?
Its IC (TGI) is 1.45 µM.

And the GI50 (IGROV-1)?
Its GI50 is 0.926 µM.

What about the CC50 (IGROV-1) of the same compound?
Its CC50 is 18.2 µM.

What about the IC (TGI) (IGROV-1) of the same compound?
The IC (TGI) was 2.26 µM.

What about the GI50 (IGROV-ET) of the same compound?
Its GI50 is 1.06 µM.

What about the CC50 (IGROV-ET) of the same compound?
The CC50 was 19.2 µM.

And the IC (TGI) (IGROV-ET)?
Its IC (TGI) is 19.2 µM.

What about the GI50 (K-562) of the same compound?
Its GI50 is 0.516 µM.

And the CC50 (K-562)?
The CC50 was 4.79 µM.

What about the IC (TGI) (K-562) of the same compound?
The IC (TGI) was 1.22 µM.

And the GI50 (LNCaP)?
Its GI50 is 0.592 µM.

And the CC50 (LNCaP)?
The CC50 was 2.76 µM.

And the IC (TGI) (LNCaP)?
Its IC (TGI) is 1.11 µM.

What about the GI50 (LoVo-Dox) of the same compound?
The GI50 was 0.924 µM.

And the CC50 (LoVo-Dox)?
Its CC50 is 19.2 µM.

And the IC (TGI) (LoVo-Dox)?
The IC (TGI) was 19.2 µM.

What about the GI50 (PANC-1) of the same compound?
Its GI50 is 0.89 µM.

And the CC50 (PANC-1)?
Its CC50 is 19.2 µM.

What about the IC (TGI) (PANC-1) of the same compound?
Its IC (TGI) is 3.26 µM.

What about the GI50 (SK-BR-3) of the same compound?
Its GI50 is 0.778 µM.

And the CC50 (SK-BR-3)?
Its CC50 is 19.2 µM.

What about the IC (TGI) (SK-BR-3) of the same compound?
The IC (TGI) was 1.75 µM.

What about the GI50 (SK-MEL-28) of the same compound?
Its GI50 is 0.598 µM.

And the CC50 (SK-MEL-28)?
Its CC50 is 5.31 µM.

And the IC (TGI) (SK-MEL-28)?
The IC (TGI) was 1.27 µM.
